Our source for the IC50 values is patent US8906909B2 (Curis, Inc., priority 2009, dated 2014).

For the assay, the system named is HDACs (HeLa cell nuclear extracts). Description: HDAC enzymatic activity, Biomol Color de Lys system. In kind it is biochemical. Here is the method:
(e) An In Vitro Assay which Determines the Ability of a Test Compound to Inhibit HDAC Enzymatic Activity.
HDAC inhibitory activity was assessed using the Biomol Color de Lys system (AK-500, Biomol, Plymouth Meeting, Pa.). Briefly, HeLa cell nuclear extracts were used as a source of HDACs. Different concentrations of test compounds were serially diluted in dimethylsulphoxide (DMSO) and added to HeLa cell nuclear extracts in the presence of a colorimetric artificial substrate. Final assay condition contained 50 mM Tris/Cl, pH 8.0, 137 mM NaCl, 2.7 mM KCl and 1 mM MgCl2. Reactions were carried in room temperature (25° C.) for 1 hour before addition of developer for termination. Relative enzyme activity was measured in the WALLAC Victor II 1420 microplate reader as floorescence intensity (excitation: 350-380 nm; emission: 440-460 nm). Data were analyzed using GraphPad Prism (v4.0a) with a sigmoidal dose response curve fitting for IC50 calculation.
In general, IC50 refers to the concentration that inhibits the measured activity by half. A higher IC50 goes with a need for much substance. As for `COc1ccc(Nc2nc(-c3cccc4[nH]ncc34)nc3cc(CN(C)c4ncc(C(=O)NO)cn4)sc23)cc1` [Compound 165], the IC50 is less than 100 nM. On to `CN(Cc1cc2nc(-c3cccc4[nH]ncc34)nc(N(CCO)CCO)c2s1)c1ncc(C(=O)NO)cn1` [Compound 162], for which the IC50 was less than 100 nM. Regarding `CN(Cc1cc2nc(-c3cccc4c3CNC4=O)nc(N3CCOCC3)c2s1)c1ncc(C(=O)NO)cn1` [Compound 181], the IC50 was less than 100 nM.

`COC(=O)CN(Cc1cc2nc(-c3cccc4[nH]ncc34)nc(N3CCOCC3)c2s1)c1ncc(C(=O)NO)cn1` [Compound 89] registered an IC50 of less than 100 nM. In turn, `CNc1ccc(-c2nc(N3CCOCC3)c3sc(N(C)c4ncc(C(=O)NO)cn4)cc3n2)cn1` [Compound 243] yielded an IC50 of 100 to 1000 nM.

Turning to `CS(=O)(=O)N1CCN(Cc2cc3nc(-c4cccc5[nH]ncc45)nc(NCCCCCCC(=O)NO)c3s2)CC1` [Compound 36], the IC50 was less than 100 nM. Compound `CNc1ccc(-c2nc(N3CCOCC3)c3sc(C(C)(C)N(C)c4ncc(C(=O)NO)cn4)cc3n2)cn1` [Compound 241] yielded an IC50 of less than 100 nM. With `CN(Cc1cc2nc(-c3cnc(C(N)=O)nc3)nc(N3CCOCC3)c2s1)c1ncc(C(=O)NO)cn1` [Compound 122], the IC50 was less than 100 nM.

In turn, `CN(c1ncc(C(=O)NO)cn1)C(C)(C)c1cc2nc(-c3ccc(N)cc3)nc(N3CCOCC3)c2s1` [Compound 270] had an IC50 of less than 100 nM.

Turning to `CC(=O)c1cccc(-c2nc(N3CCOCC3)c3sc(CN(C)c4ncc(C(=O)NO)cn4)cc3n2)c1` [Compound 300], the IC50 was less than 100 nM. The compound `CN(C)CCN(Cc1cc2nc(-c3cccc4[nH]ncc34)nc(N3CCOCC3)c2s1)c1ncc(C(=O)NO)cn1` [Compound 95] had an IC50 of 100 to 1000 nM.

In the case of `CN(Cc1cc2nc(-c3cccc(C(C)(C)O)c3)nc(N3CCOCC3)c2s1)c1ncc(C(=O)NO)cn1` [Compound 302], the IC50 was less than 100 nM.

In turn, `COCCNc1nc(-c2cccc3[nH]ncc23)nc2cc(CN(C)c3ncc(C(=O)NO)cn3)sc12` [Compound 160] returned an IC50 of less than 100 nM. In turn, `CCN(CC)c1nc(-c2cccc3[nH]ncc23)nc2cc(CN(C)c3ncc(C(=O)NO)cn3)sc12` [Compound 158] displayed an IC50 of less than 100 nM. The same measure for `O=C(CCCCNc1cc2nc(-c3cc(O)ccc3F)nc(N3CCOCC3)c2s1)NO` [Compound 231]: less than 100 nM; for `COCCN(CCOC)c1nc(-c2cccc3[nH]ncc23)nc2cc(CN(C)c3ncc(C(=O)NO)cn3)sc12` [Compound 163]: less than 100 nM. Consider `CCCc1nc2cc(/C=C/C(=O)NO)ccc2n1CCN(C)Cc1cc2nc(-c3ccc(NC)nc3)nc(N3CCOCC3)c2s1` [Compound 322], for which the IC50 was in the range of 100 to 1000 nM. Consider `CNc1ccc(-c2nc(N3CCOCC3)c3sc(NS(=O)(=O)c4ccc(/C=C/C(=O)NO)cc4)cc3n2)cn1` [Compound 223], for which the IC50 is less than 100 nM. `CCCc1nc2cc(/C=C/C(=O)NO)ccc2n1CCNCc1cc2nc(-c3ccc(N)cc3)nc(N3CCOCC3)c2s1` [Compound 325] registered an IC50 of 100 to 1000 nM. In turn, `CN(Cc1cc2nc(-c3c[nH]c4ccccc34)nc(N3CCOCC3)c2s1)c1ncc(C(=O)NO)cn1` [Compound 184] yielded an IC50 of less than 100 nM. For the compound `Nc1ccc(-c2nc(N3CCOCC3)c3sc(CNCc4ccc(/C=C/C(=O)NO)cc4)cc3n2)cc1` [Compound 210], the IC50 is 100 to 1000 nM. The compound `CN(Cc1cc2nc(-c3cccc(NS(C)(=O)=O)c3)nc(N3CCOCC3)c2s1)c1ncc(C(=O)NO)cn1` [Compound 288] came in with an IC50 of less than 100 nM. For the compound `CCCc1nc2cc(/C=C/C(=O)NO)ccc2n1CCNCc1cc2nc(-c3ccc(NC)nc3)nc(N3CCOCC3)c2s1` [Compound 323], the IC50 lay within 100 to 1000 nM. The compound `Cc1ncc(-c2nc(N3CCOCC3)c3sc(CN(CCO)c4ncc(C(=O)NO)cn4)cc3n2)s1` [Compound 312] registered an IC50 of less than 100 nM. The result for `COc1ccc(-c2nc(N3CCOCC3)c3sc(C(C)(C)Nc4ncc(C(=O)NO)cn4)cc3n2)cn1` [Compound 250, N-Hydroxy-2-(2-(2-(6-methoxypyridin-3-yl)-4-morpholinothieno[3,2-d]pyrimidin-6-yl)propan-2-ylamino)pyrimidine-5-carboxamide] reads less than 100 nM; that for `CN(Cc1cc2nc(-c3cccc4[nH]c(=O)[nH]c34)nc(N3CCOCC3)c2s1)c1ncc(C(=O)NO)cn1` [Compound 314], less than 100 nM. In turn, `CNc1ccc(-c2nc(N3CCOCC3)c3sc(CN(CCO)c4ncc(C(=O)NO)cn4)cc3n2)cn1` [Compound 245] returned an IC50 of less than 100 nM. The same measure for `CN(CC1CCN(c2ncc(C(=O)NO)cn2)CC1)c1cc2nc(-c3cccc4[nH]ncc34)nc(N3CCOCC3)c2s1` [Compound 49]: 100 to 1000 nM; for `CNc1ccc(-c2nc(N3CCOCC3)c3sc(NS(=O)(=O)c4cccc(/C=C/C(=O)NO)c4)cc3n2)cn1` [Compound 224]: less than 100 nM. The same measure for `CN(Cc1cc2nc(-c3ccc(OCc4ccccc4)nc3)nc(N3CCOCC3)c2s1)c1ncc(C(=O)NO)cn1` [Compound 260]: less than 100 nM; for `CN(Cc1cc2nc(-c3cccc4c3CC(=O)N4)nc(N3CCOCC3)c2s1)c1ncc(C(=O)NO)cn1` [Compound 178]: less than 100 nM. The same measure for `CN(Cc1cc2nc(-c3cccc4[nH]ncc34)nc(N3CCCCC3)c2s1)c1ncc(C(=O)NO)cn1` [Compound 67]: less than 100 nM; for `O=C(NO)c1cnc(N2CCC(CNc3cc4nc(-c5cccc6[nH]ncc56)nc(N5CCOCC5)c4s3)CC2)nc1` [Compound 48]: less than 100 nM. Consider `C/C(=N/O)c1ccc(F)c(-c2nc(N3CCOCC3)c3sc(CN(C)c4ncc(C(=O)NO)cn4)cc3n2)c1` [Compound 298], for which the IC50 is less than 100 nM. The result for `CN(Cc1cc2nc(-c3cccc4[nH]c(=O)sc34)nc(N3CCOCC3)c2s1)c1ncc(C(=O)NO)cn1` [Compound 317] reads less than 100 nM; that for `CN(Cc1cc2nc(-c3cccc4[nH]ncc34)nc(N3CCN(CCO)CC3)c2s1)c1ncc(C(=O)NO)cn1` [Compound 63], less than 100 nM. The result for `CNc1ccc(-c2nc(N3CCOCC3)c3sc(CNCc4nc5cc(/C=C/C(=O)NO)ccc5n4C)cc3n2)cn1` [Compound 328] reads 100 to 1000 nM; that for `CN(Cc1cc2nc(-c3ccc4[nH]ccc4c3)nc(N3CCOCC3)c2s1)c1ncc(C(=O)NO)cn1` [Compound 192], less than 100 nM; that for `C/C(=N/O)c1cccc(-c2nc(N3CCOCC3)c3sc(CN(C)c4ncc(C(=O)NO)cn4)cc3n2)c1` [Compound 299], less than 100 nM. As to `Nc1ccc(-c2nc(N3CCOCC3)c3sc(CNCc4ccc(C(=O)NO)cc4)cc3n2)cc1` [Compound 209], the IC50 was less than 100 nM.

Compound `O=C(O)CN(Cc1cc2nc(-c3cccc4[nH]ncc34)nc(N3CCOCC3)c2s1)c1ncc(C(=O)NO)cn1` [Compound 88] showed an IC50 of 100 to 1000 nM. Regarding `CN(Cc1cc2nc(-c3ccc(O)nc3)nc(N3CCOCC3)c2s1)c1ncc(C(=O)NO)cn1` [Compound 254], the IC50 was less than 100 nM. `O=C(NO)c1cnc(NCc2cc3cc(-c4cccc5[nH]ncc45)nc(N4CCOCC4)c3s2)nc1` [Compound 73] yielded a concentration for half-maximal inhibition (IC50) of less than 100 nM. Compound `CC(C)OC(=O)Nc1ccc(-c2nc(N3CCOCC3)c3sc(CN(C)c4ncc(C(=O)NO)cn4)cc3n2)cc1` [Compound 287] had an IC50 of less than 100 nM. For the compound `CN(Cc1cc2nc(-c3cccc(S(=O)(=O)CCO)c3)nc(N3CCOCC3)c2s1)c1ncc(C(=O)NO)cn1` [Compound 291], the IC50 is less than 100 nM. As for `Nc1ccc(-c2nc(N3CCOCC3)c3sc(CN(CCO)c4ncc(C(=O)NO)cn4)cc3n2)cn1` [Compound 235], the IC50 is less than 100 nM.

For `O=C(/C=C/c1cccc(S(=O)(=O)Nc2cc3nc(-c4cccc5[nH]ncc45)nc(N4CCOCC4)c3s2)c1)NO` [Compound 216], the IC50 was less than 100 nM. In the case of `Nc1ccc(-c2nc(N3CCOCC3)c3sc(Nc4ncc(C(=O)NO)cn4)cc3n2)cc1` [Compound 273], the IC50 fell in the range of 100 to 1000 nM. In turn, `O=C(NO)c1cc2nc(-c3cccc4[nH]ncc34)nc(N3CCOCC3)c2s1` [Compound 45] came in with an IC50 greater than 10000 nM. `NCCN(Cc1cc2nc(-c3cccc4[nH]ncc34)nc(N3CCOCC3)c2s1)c1ncc(C(=O)NO)cn1` [Compound 94] displayed an IC50 of less than 100 nM.

`CN(Cc1cc2nc(-c3cccc(C(N)=O)c3)nc(N3CCOCC3)c2s1)c1ncc(C(=O)NO)cn1` [Compound 142, 2-(((2-(3-carbamoylphenyl)-4-morpholinothieno[3,2-d]pyrimidin-6-yl)methyl)(methyl)amino)-N-hydroxypyrimidine-5-carboxamide] came in with an IC50 of less than 100 nM. As to `CN(Cc1cc2nc(-c3ccc4c(c3)OCCN4)nc(N3CCOCC3)c2s1)c1ncc(C(=O)NO)cn1` [Compound 191], the IC50 is less than 100 nM. `Cn1c(CNCc2cc3nc(-c4ccc(N)cc4)nc(N4CCOCC4)c3s2)nc2cc(/C=C/C(=O)NO)ccc21` [Compound 326]: the IC50 lay in the range of 100 to 1000 nM. Turning to `CN(Cc1cc2nc(-c3ccc(N)cc3F)nc(N3CCOCC3)c2s1)c1ncc(C(=O)NO)cn1` [Compound 283, 2-{[2-(4-Amino-2-fluoro-phenyl)-4-morpholin-4-yl-thieno[3,2-d]pyrimidin-6-ylmethyl]-methyl-amino}-pyrimidine-5-carboxylic acid hydroxyamide], the IC50 is less than 100 nM. The result for `CS(=O)(=O)N1CCN(Cc2cc3nc(-c4cccc5[nH]ncc45)nc(NCCCCCC(=O)NO)c3s2)CC1` [Compound 35] reads less than 100 nM. `O=C(NO)c1cnc(N2CCN(S(=O)(=O)c3cc4nc(-c5cccc6[nH]ncc56)nc(N5CCOCC5)c4s3)CC2)nc1` [Compound 51] came in with an IC50 of 100 to 1000 nM. The compound `CC(=O)c1ccc(F)c(-c2nc(N3CCOCC3)c3sc(CN(C)c4ncc(C(=O)NO)cn4)cc3n2)c1` [Compound 301] showed an IC50 of less than 100 nM.
